# Test results reported in patent publication US12427166B2, “Antifungal agent” (priority 2015, dated 2025).
# Read-outs that look alike come from different tables or passages of the source.
# Experiments:
# Experiment in all cases: EUCAST micro broth dilution in vitro susceptibility testing
# Type in all cases: cell-based
# [1] = test system: Aspergillus fumigatus TR46/Y121F/T289A (azole resistant)
# Procedure: (§1) The antifungal activity of a composition comprising Poly-(hexamethylene-guanidium chloride) and N,N-didecyl-N-methyl-poly(oxyethyl) ammonium propionate in a ratio of about 1:1 with respect to the molar amount was tested on wild type Aspergillus fumigatus (ATCC 204305) and azole resistant strains (TR 34/L98H and TR46/Y121F/T289A) as well as one clinical sample of Fusarium proliferatum and one clinical sample of Scedosporium Apiospermum was evaluated by means of EUCAST micro broth dilution1. This test method is currently recognized as the gold standard for in vitro susceptibility testing of filamenteus fungi. The test drug was diluted 1:30 in RPMI 1640 in order to obtain a max test concentration of 100 PPM. The test was performed three times for each test strain. The test drug was tested in the concentration range from 1-100 ppm.
# [2] = test system: Scedosporium Apiospermum (clinical sample)
# Procedure: as §1
# [3] = test system: Fusarium Proliferatum (clinical sample)
# Procedure: as §1
# [4] = test system: Aspergillus fumigatus TR34/L98H (azole resistant)
# Procedure: as §1
# [5] = test system: Aspergillus fumigatus ATCC 204305 (wild type)
# Procedure: as §1
# [6] = Aspergillus fumigatus TR46/Y121F/T289A
# [7] = Aspergillus fumigatus TR34/L98H
smiles,measurement,setting,value
C[C@@H]1[C@H](O)[C@@H](C)/C=C/C=C/C=C/C=C/C=C/C=C/C=C/[C@H](O[C@@H]2O[C@H](C)[C@@H](O)[C@H](N)[C@@H]2O)C[C@@H]2O[C@](O)(C[C@@H](O)C[C@@H](O)[C@H](O)CC[C@@H](O)C[C@@H](O)CC(=O)O[C@H]1C)C[C@H](O)[C@H]2C(=O)O [Amphotericin B],MIC,[1]; [6],0.25 µg/mL
same,MIC,[2],4 µg/mL
same,MIC,[3],1 µg/mL
same,MIC,[4]; [7],0.25 µg/mL
same,MIC,[5],0.25 µg/mL
CCC(C)n1ncn(-c2ccc(N3CCN(c4ccc(OCC5COC(Cn6cncn6)(c6ccc(Cl)cc6Cl)O5)cc4)CC3)cc2)c1=O (stereo not shown) [Itraconazol],MIC,[1]; Aspergillus fumigatus,1 µg/mL
same,MIC,[2]; read-out: MIC,0.25 µg/mL
same,MIC,[3]; read-out: MIC,> 8 µg/mL
same,MIC,[4]; Aspergillus fumigatus,> 8 µg/mL
same,MIC,[5],0.125 µg/mL
C[C@@H]1C/C=C/C=C/C=C/C=C/[C@H](O[C@@H]2O[C@H](C)[C@@H](O)[C@H](N)[C@@H]2O)C[C@@H]2O[C@](O)(C[C@@H](O)C[C@H]3O[C@@H]3/C=C/C(=O)O1)C[C@H](O)[C@H]2C(=O)O [Natamycin],MIC,[1]; Aspergillus fumigatus,2 µg/mL
same,MIC,[2]; read-out: MIC,2 µg/mL
same,MIC,[3]; read-out: MIC,4 µg/mL
same,MIC,[4]; Aspergillus fumigatus,4 µg/mL
same,MIC,"[5]; ATCC204305, read-out: MIC",4 µg/mL
CN(C/C=C/C#CC(C)(C)C)Cc1cccc2ccccc12 [Terbinafin],MIC,[1]; [6],2 µg/mL
same,MIC,[2],>16 µg/mL
same,MIC,[3],1 µg/mL
same,MIC,[4]; [7],4 µg/mL
same,MIC,[5],2 µg/mL
C[C@@H](c1ncncc1F)[C@](O)(Cn1cncn1)c1ccc(F)cc1F [Voriconazol],MIC,[1]; Aspergillus fumigatus,> 16 µg/mL
same,MIC,[2]; read-out: MIC,0.25 µg/mL
same,MIC,[3]; read-out: MIC,4 µg/mL
same,MIC,[4]; Aspergillus fumigatus,4 µg/mL
same,MIC,"[5]; ATCC204305, read-out: MIC",0.5 µg/mL
